Assays:
[1] = test system: HEK293; experiment: IBDV replication with or without 5 mM 2-aminopurin, TCID50 titration, HEK293; type: cell-based; settings: HEK293 (normal RAS), IBDV MOI 0.05, 5 mM 2-AP versus none, 96 h
Protocol: (§1) FIG. 2: Enhancement of IBDV replication following treatment with 2-aminopurin in cell lines with normal RAS function (HEK293, AGE1.CR.PIX) but not in a RAS defective cell line (A549). Cells were infected with IBDV at MOI 0.05 either in the presence of 5 mM 2-aminopurin (2-AP) or without, cells together with supernatant were lysed by 3× freeze/thaw steps, cell debris was removed by centrifugation and the virus titer was quantified by TCID50.
(§2) Because susceptibility varies among cell lines, the positive impact of a RAS defect on IBDV replication has to be shown comparing cells of the same type with a specific propensity to replicate IBDV with normal and defect RAS function. Such RAS defect can be simulated in a cell line with normal RAS when cells are treated with 2-aminopurin. The drug prevents phosphorylation of protein kinase PKR that is prevented in cells with a RAS defect. The effect of 2-aminopurin on IBDV replication is studied in cell lines with (A549) and without a RAS mutation (AGE1.CR.PIX, HEK293).
(§3) HEK 293, A549, and AGE1.CR.pIX cells were infected with IBDV at MOI 0.05 either in the presence of 5 mM 2-aminopurin (2-AP) or without. […] Subsequently, the virus titer was quantified by TCID50 titration in different dilutions using adherent AGE1.CR.PIX cells. Based on the cytopathic effect (CPE) the TCID50 titer was evaluated 72 hours post infection (FIG. 2).

[2] = test system: AGE1.CR.PIX; experiment: IBDV replication with or without 5 mM 2-aminopurin, TCID50 titration, AGE1.CR.PIX; type: cell-based, duck; settings: AGE1.CR.PIX (normal RAS), IBDV MOI 0.05, 5 mM 2-AP versus none, 96 h
Protocol: as §1, §2, §3

[3] = test system: A549; experiment: IBDV replication with or without 5 mM 2-aminopurin, TCID50 titration, A549 (RAS mutant); type: cell-based, human; settings: IBDV MOI 0.05, 5 mM 2-AP versus none, 96 h
Protocol: as §1, §2, §3

[4] = test system: stage IV hilar cholangiocarcinoma; experiment: Compassionate use case report: cholangiocarcinoma; type: in vivo, human; settings: same patient before IBDV; agents added to ongoing low-dose chemotherapy; CA19-9 at diagnosis 2,729
From the text: A person approached the clinic for treatment of resistant stage IV hilar cholangiocarcinoma, CK7 positive, CK20 negative with confirmed peritoneal metastatic disease. During 2016 patient developed unexplained weight loss of approximately 10 kg, night pruritus. […] In January 2017 jaundice developed. Blood test on 19 Mar. […] Considering tumor location and potential involvement of both right and left lobes, no surgical procedure was considered, except liver transplantation. On 10 Apr. 2017 a biliary stent was introduced for drainage of rising levels of bilirubin >14 mg/dL. On 13 Apr. 2017 abdominal exploratory laparoscopy reviled peritoneal metastases and conventional chemotherapy was recommended but the patient preferred synergic combination of low doses of gemcitabine, leucovorin, fluorouracil, irinotecan and oxaliplatin administered over 48 h period every two weeks. After discovery of 2 mutations on BRCA1 (Exon 10/V9201) and BRCA2 (Exon 11/N2113S) it was decided to add PARP inhibitor and on 24 Jul. 2017 rucaparib was added and CA19-9 dropped to 287 IU/mL. CA19-9 increased following administration of nivolumab but stabilized at 250 IU/mL by adding abraxane, gemcitabine and oxaliplatin. Following addition of Erbitux and later on combinations of low-dose (1.0 mg/kg) ipilimumab and nivolumab (2 mg/kg) CA19-9 levels dropped from 369 IU/mL to normal levels. […]

Nc1ncc2[nH]cnc2n1 [2-aminopurine]
Enhancement of IBDV replication (virus titer, TCID50) [1]: approximately 10 fold
Enhancement of IBDV replication (virus titer, TCID50) [2]: approximately 10 fold
Effect on IBDV replication (virus titer, TCID50) [3]: no benefit

CNCc1ccc(-c2[nH]c3cc(F)cc4c3c2CCNC4=O)cc1 [rucaparib]
Tumor marker CA19-9 level after adding the agent (earlier therapy, patient history) [4]: 287 IU/mL

nivolumab
Tumor marker CA19-9 level after adding the agent (earlier therapy, patient history) [4]: increased
